The values that follow come from article PMC7541553 (Molecular cancer therapeutics, 2020).

On the set-up of the data set: species or system BALB/C mice. The following applies: mouse, in vivo, iv.

Arg-Gly-Asp [RGD]: the “t1/2 in the circulation” value amounted to 33.4 ± 0.9 min.
